Results on twelve compounds are retold here after ChEMBL document CHEMBL1149511, “Tri-substituted triazoles as potent non-nucleoside inhibitors of the HIV-1 reverse transcriptase” (Bioorg Med Chem Lett, 2006).

What is called EC50 is the concentration giving half of the maximal effect. Higher therefore signals lower potency in that assay.

Each structure is given as a SMILES string.

Holding throughout (type): functional, cell-based
The subject of test [1] is HeLa. Kind of test: Antiviral activity against wild type HIV1 in HeLa-JC53 cells. Conditions: Homo sapiens.
In test [2] the test system is HeLa. Put plainly: Cytotoxicity against human HeLa-JC53 cells.
The test system of test [3] is HeLa. Put plainly: Antiviral activity against HIV1 Y188L mutant in HeLa-JC53 cells.
For test [4], the system named is HeLa. Put plainly: Antiviral activity against HIV1 K103N-Y181C mutant in HeLa-JC53 cells.

With `Cc1ccc2c(C)ccc(-n3c(C)nnc3SCC(=O)Nc3ccc(S(N)(=O)=O)cc3Cl)c2c1`, the results for the EC50 with HeLa [1] and in the test with HeLa [3] were 0.6 nM and 6 nM, respectively. The Activity result in the test with HeLa [2] is “Not toxic”.
Taken in the same sequence, the figures for `CN(C)c1ccc(-n2c(SCC(=O)Nc3ccc(S(N)(=O)=O)cc3Cl)nnc2C(F)(F)F)c2ccccc12` were 2 nM, 7 nM and “Not toxic”.
As to `Cc1cc(C)c2ccccc2c1-n1c(C)nnc1SCC(=O)Nc1ccc(S(N)(=O)=O)cc1Cl`, the 50% effective concentration (EC50) is 0.1 nM with HeLa [1] and 4 nM with HeLa [3]. Moreover, the Activity result in the test with HeLa [2] is “Not toxic”.
As to `Cc1ccc2ccccc2c1-n1c(C)nnc1SCC(=O)Nc1ccccc1Br`, the EC50 stood at 1 nM in the test on HeLa [1], 65 nM with HeLa [4] and 210 nM in the test on HeLa [3].
Take `Cc1cc(-n2c(C)nnc2SCC(=O)Nc2ccccc2Br)c2ccccc2c1C`: the 50% effective concentration (EC50) in the test on HeLa [1] turned out to be 0.5 nM; in the test on HeLa [4] it was 31 nM; in the test on HeLa [3] it was 97 nM.
`Cc1ccc(NC(=O)CSc2nnc(C)n2-c2ccc(Cl)c3ccccc23)c(Cl)c1`: the results for the concentration giving a half-maximal response (EC50) with HeLa [1], with HeLa [4] and in the test with HeLa [3] were 1 nM, 190 nM and 320 nM, respectively.
Take `Cc1nnc(SCC(=O)Nc2ccccc2Br)n1-c1ccc(Cl)c2ccccc12`: the concentration for a half-maximal effect (EC50) turned out to be 0.8 nM in the test on HeLa [1], 130 nM in the test with HeLa [4] and 200 nM with HeLa [3].
`Cc1ccc(NC(=O)CSc2nnc(C)n2-c2ccc(C)c3ccccc23)c(Cl)c1`: the half-maximal effective concentration (EC50) is 1 nM in the test with HeLa [1], 16 nM in the test with HeLa [4] and 100 nM in the test on HeLa [3].
Regarding `CCc1ccc(-n2c(C)nnc2SCC(=O)Nc2ccccc2Br)c2ccccc12`, the 50% effective concentration (EC50) stood at 0.5 nM in the test on HeLa [1], 22 nM in the test with HeLa [4] and 58 nM in the test with HeLa [3].
Turning to `Cc1ccc2c(C)cc(C)c(-n3c(SCC(=O)Nc4ccc(S(N)(=O)=O)cc4Cl)nnc3C(F)(F)F)c2n1`, the 50% effective concentration (EC50) in the test with HeLa [1] stood at 1 nM; in the test with HeLa [3] it was 4 nM. The Activity entry with HeLa [2] is “Not toxic”.
In the case of `Cc1ccc(NC(=O)CSc2nnc(C)n2-c2cccc3ccccc23)c(Cl)c1`, the values for the EC50 in the test with HeLa [1], in the test on HeLa [4] and in the test with HeLa [3] were 4 nM, 54 nM and 590 nM, respectively.
Turning to `Cc1ccc(NC(=O)CSc2nnc(C)n2-c2c(C)ccc3ccccc23)c(Cl)c1`, the EC50 is 1 nM with HeLa [1], 60 nM in the test with HeLa [4] and 200 nM with HeLa [3].
